Assay results as given in patent publication US11623932B2, “Protein degraders and uses thereof” (Kymera Therapeutics, Inc., priority 2017, dated 2023).

Columns and labels:
[1] = target: Untagged CRBN-DDB1 complex (Homo sapiens (Human), UniProt Q96SW2); assay: Fluorescence polarization (FP) assay, displacement of Cy5-labeled thalidomide; type: binding; details: Cy5-labeled thalidomide 20 nM, 10 min at room temperature
Method: The final solution contained 50 mM HEPES, 200 mM NaCl and 2 mM DTT, pH 7.5. The mixtures were incubated at room temperature for 10 min. The FP signals were recorded on an EnVision plate reader (Perkin Elmer) using the following settings: Excitation Light (%): 100; Measurement Height: 12; G-Factor: 1; Detector Gain 1: 500; Detector Gain 2: 500; Flash Number: 100. Dose-dependent loss of FP signals was fitted by four-parameter Logistic Function using GraphPad Prism 7.0 and the IC50 values were reported for each compound.
The compound numbers correspond to the compound numbers in the examples.

BRD4 = BRD4 (Homo sapiens (Human), UniProt O60885); assay: BRD4 degradation in NAMALWA cells, Western Blot; type: cell-based; details: 2 h

Untagged CRBN-DDB1 complex, sequence (Q96SW2 whole entry): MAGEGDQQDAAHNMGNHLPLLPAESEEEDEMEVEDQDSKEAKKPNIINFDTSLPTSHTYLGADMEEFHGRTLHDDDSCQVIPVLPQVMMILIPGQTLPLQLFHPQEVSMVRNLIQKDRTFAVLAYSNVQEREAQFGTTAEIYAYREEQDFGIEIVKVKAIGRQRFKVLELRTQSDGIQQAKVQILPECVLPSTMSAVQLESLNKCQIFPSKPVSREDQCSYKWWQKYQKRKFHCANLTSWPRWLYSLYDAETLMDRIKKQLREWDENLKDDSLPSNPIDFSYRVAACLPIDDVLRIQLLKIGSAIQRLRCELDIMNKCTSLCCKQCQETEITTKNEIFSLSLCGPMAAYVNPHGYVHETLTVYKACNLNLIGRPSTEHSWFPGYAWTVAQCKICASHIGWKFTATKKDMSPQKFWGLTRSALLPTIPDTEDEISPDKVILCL
Untagged CRBN-DDB1 complex, sequence (Q16531 whole entry partner): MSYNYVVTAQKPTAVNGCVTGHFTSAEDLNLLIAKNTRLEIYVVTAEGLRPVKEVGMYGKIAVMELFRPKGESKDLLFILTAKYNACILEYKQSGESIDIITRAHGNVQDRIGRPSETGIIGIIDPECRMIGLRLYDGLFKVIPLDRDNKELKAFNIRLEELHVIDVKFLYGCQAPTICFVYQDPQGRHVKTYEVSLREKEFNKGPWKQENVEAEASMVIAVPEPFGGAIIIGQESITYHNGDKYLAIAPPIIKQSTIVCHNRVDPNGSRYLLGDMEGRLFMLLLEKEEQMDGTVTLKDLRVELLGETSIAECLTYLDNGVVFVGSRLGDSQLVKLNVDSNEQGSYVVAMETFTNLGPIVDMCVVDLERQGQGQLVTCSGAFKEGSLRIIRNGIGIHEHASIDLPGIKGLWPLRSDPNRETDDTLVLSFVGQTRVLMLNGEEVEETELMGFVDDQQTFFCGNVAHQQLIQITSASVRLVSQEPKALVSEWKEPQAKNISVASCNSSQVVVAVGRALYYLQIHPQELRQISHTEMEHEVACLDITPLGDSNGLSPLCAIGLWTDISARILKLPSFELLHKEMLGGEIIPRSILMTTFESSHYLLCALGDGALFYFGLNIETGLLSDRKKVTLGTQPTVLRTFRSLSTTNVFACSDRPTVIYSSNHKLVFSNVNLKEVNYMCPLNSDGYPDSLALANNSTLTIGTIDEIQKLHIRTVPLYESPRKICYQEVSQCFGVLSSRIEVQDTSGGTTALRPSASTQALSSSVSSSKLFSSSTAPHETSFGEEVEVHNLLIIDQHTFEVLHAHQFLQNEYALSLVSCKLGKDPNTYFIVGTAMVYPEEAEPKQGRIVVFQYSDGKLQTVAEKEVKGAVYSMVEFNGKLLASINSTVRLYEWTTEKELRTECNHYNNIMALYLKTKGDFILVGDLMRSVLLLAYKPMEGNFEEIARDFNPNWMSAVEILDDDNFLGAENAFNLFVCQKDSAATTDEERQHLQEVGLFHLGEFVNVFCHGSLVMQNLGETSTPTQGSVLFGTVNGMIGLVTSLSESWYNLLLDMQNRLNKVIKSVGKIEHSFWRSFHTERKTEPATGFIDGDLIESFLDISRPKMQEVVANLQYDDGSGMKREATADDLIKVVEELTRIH

SMILES	IC50 [1] [µM]	% BRD4 degradation (BRD4; 0.0003 uM)	% BRD4 degradation (BRD4; 0.001 uM)	% BRD4 degradation (BRD4; 0.003 uM)	% BRD4 degradation (BRD4; 0.01 uM)	% BRD4 degradation (BRD4; 0.03 uM)	% BRD4 degradation (BRD4; 0.1 uM)	% BRD4 degradation (BRD4; 0.3 uM)	% BRD4 degradation (BRD4; 1 uM)
O=C1CCC(N2C(=O)Cc3ccccc32)C(=O)N1 (stereo not drawn) [Compound 3, 3-(2-Oxo-2,3-dihydro-1H-indol-1-yl)piperidine-2,6-dione]	> 100	–	–	–	–	–	–	–	–
Cc1sc2c(c1C)C(c1ccc(Cl)cc1)=N[C@@H](CC(=O)NCCOCCOCCCc1ccc3c(c1)n(C)c(=O)n3C1CCC(=O)NC1=O)c1nnc(C)n1-2 (stereo partly drawn) [Compound I-35, 2-((S)-4-(4-chlorophenyl)-2,3,9-trimethyl-6H-thieno[3,2-f][1,2,4]triazolo[4,3-a][1,4]diazepin-6-yl)-N-(2-(2-(3-(1-(2,6-dioxopiperidin-3-yl)-3-methyl-2-oxo-2,3-dihydro-1H-benzo[d]imidazol-5-yl)propoxy)ethoxy)ethyl)acetamide]	–	B (60 to 80 percent protein degradation)	A (greater than 80 percent protein degradation)	A (greater than 80 percent protein degradation)	A (greater than 80 percent protein degradation)	A (greater than 80 percent protein degradation)	A (greater than 80 percent protein degradation)	A (greater than 80 percent protein degradation)	A (greater than 80 percent protein degradation)
Cc1sc2c(c1C)C(c1ccc(Cl)cc1)=N[C@@H](CC(=O)NCCOCCOCCCc1cccc3c1n(C)c(=O)n3C1CCC(=O)NC1=O)c1nnc(C)n1-2 (stereo partly drawn) [Compound I-36, 2-((S)-4-(4-chlorophenyl)-2,3,9-trimethyl-6H-thieno[3,2-f][1,2,4]triazolo[4,3-a][1,4]diazepin-6-yl)-N-(2-(2-(3-(1-(2,6-dioxopiperidin-3-yl)-3-methyl-2-oxo-2,3-dihydro-1H-benzo[d]imidazol-4-yl)propoxy)ethoxy)ethyl)acetamide]	–	C (40 to 60 percent protein degradation)	C (40 to 60 percent protein degradation)	C (40 to 60 percent protein degradation)	C (40 to 60 percent protein degradation)	B (60 to 80 percent protein degradation)	B (60 to 80 percent protein degradation)	B (60 to 80 percent protein degradation)	B (60 to 80 percent protein degradation)
Cc1sc2c(c1C)C(c1ccc(Cl)cc1)=N[C@@H](CC(=O)NCCOCCOCCOCCn1c(=O)n(C3CCC(=O)NC3=O)c3ccccc31)c1nnc(C)n1-2 (stereo partly drawn) [Compound I-37, 2-((S)-4-(4-Chlorophenyl)-2,3,9-trimethyl-6H-thieno[3,2-f][1,2,4]triazolo[4,3-a][1,4]diazepin-6-yl)-N-(2-(2-(2-(2-(3-(2,6-dioxopiperidin-3-yl)-2-oxo-2,3-dihydro-1H-benzo[d]imidazol-1-yl)ethoxy)ethoxy)ethoxy)ethyl)acetamide]	–	B (60 to 80 percent protein degradation)	B (60 to 80 percent protein degradation)	A (greater than 80 percent protein degradation)	A (greater than 80 percent protein degradation)	A (greater than 80 percent protein degradation)	A (greater than 80 percent protein degradation)	A (greater than 80 percent protein degradation)	A (greater than 80 percent protein degradation)
Cc1sc2c(c1C)C(c1ccc(Cl)cc1)=N[C@@H](CC(=O)NCCOCCOCCn1c(=O)n(C3CCC(=O)NC3=O)c3ccccc31)c1nnc(C)n1-2 (stereo partly drawn) [Compound I-38, 2-((S)-4-(4-chlorophenyl)-2,3,9-trimethyl-6H-thieno[3,2-f][1,2,4]triazolo[4,3-a][1,4]diazepin-6-yl)-N-(2-(2-(2-(3-(2,6-dioxopiperidin-3-yl)-2-oxo-2,3-dihydro-1H-benzo[d]imidazol-1-yl)ethoxy)ethoxy)ethyl)acetamide]	–	D (less than 40 percent protein degradation)	B (60 to 80 percent protein degradation)	A (greater than 80 percent protein degradation)	A (greater than 80 percent protein degradation)	A (greater than 80 percent protein degradation)	A (greater than 80 percent protein degradation)	A (greater than 80 percent protein degradation)	A (greater than 80 percent protein degradation)
